Target: Phospholipase D2 (Homo sapiens) + Phospholipase D2 (Homo sapiens) (UniProt O14939+O14939)
Experiment: PLD2 inhibition potency in cells, dose response, cell-based, Lib32, assay 2B (AID 624004)
Settings: cellular PLD2 activity assay

Phospholipase D2 (Homo sapiens) + Phospholipase D2 (Homo sapiens), sequence (O14939 whole entry, looked up): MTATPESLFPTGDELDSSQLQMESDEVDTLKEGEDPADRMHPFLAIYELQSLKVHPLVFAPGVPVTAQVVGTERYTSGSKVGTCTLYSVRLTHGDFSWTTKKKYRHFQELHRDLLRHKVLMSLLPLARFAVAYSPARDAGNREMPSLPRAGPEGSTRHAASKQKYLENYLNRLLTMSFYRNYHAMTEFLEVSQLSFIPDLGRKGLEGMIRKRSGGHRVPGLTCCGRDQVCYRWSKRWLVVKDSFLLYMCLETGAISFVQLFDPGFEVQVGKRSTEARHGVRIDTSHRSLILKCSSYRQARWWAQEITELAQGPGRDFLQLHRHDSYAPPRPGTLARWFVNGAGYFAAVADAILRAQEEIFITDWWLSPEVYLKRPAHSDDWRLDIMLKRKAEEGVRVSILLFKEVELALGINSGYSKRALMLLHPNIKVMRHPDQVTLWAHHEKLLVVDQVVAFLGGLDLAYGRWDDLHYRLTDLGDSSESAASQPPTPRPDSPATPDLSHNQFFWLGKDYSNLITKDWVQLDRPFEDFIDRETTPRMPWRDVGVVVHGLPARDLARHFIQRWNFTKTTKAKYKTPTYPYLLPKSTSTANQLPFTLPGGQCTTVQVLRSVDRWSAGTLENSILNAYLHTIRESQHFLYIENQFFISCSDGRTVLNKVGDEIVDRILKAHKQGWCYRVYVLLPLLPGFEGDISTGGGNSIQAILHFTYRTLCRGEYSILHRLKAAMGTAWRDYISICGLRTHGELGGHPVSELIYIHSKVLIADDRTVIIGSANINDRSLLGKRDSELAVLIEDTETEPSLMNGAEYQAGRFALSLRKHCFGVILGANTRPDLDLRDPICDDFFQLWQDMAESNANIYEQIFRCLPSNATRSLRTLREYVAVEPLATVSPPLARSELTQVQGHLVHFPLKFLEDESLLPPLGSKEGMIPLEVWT
Phospholipase D2 (Homo sapiens) + Phospholipase D2 (Homo sapiens), sequence (O14939 whole entry, looked up): as above

| Compound | IC50 |
| --- | --- |
| C[C@@H](CN1CCC2(CC1)C(=O)NCN2c1cccc(F)c1)NC(=O)c1ccc(F)cc1F | 947 nM |
| COc1cc(C(=O)N[C@@H](C)CN2CCC3(CC2)C(=O)NCN3c2cccc(F)c2)cc(OC)c1OC | 72 nM |
| C[C@@H](CN1CCC2(CC1)C(=O)NCN2c1cccc(F)c1)NC(=O)c1ccc(F)c(F)c1 | 120 nM |
| O=C(NCCN1CCC2(CC1)C(=O)NCN2c1cccc(F)c1)c1ccc(Br)cc1 | 200 nM |
| C[C@@H](CN1CCC2(CC1)C(=O)NCN2c1cccc(F)c1)NC(=O)c1ccc(Br)cc1 | 84 nM |
| C[C@@H](CN1CCC2(CC1)C(=O)NCN2c1cccc(F)c1)NC(=O)c1cccc(F)c1 | 1200 nM |
| O=C(NCCN1CCC2(CC1)C(=O)NCN2c1cccc(F)c1)c1ccc(F)cc1 | 355 nM |
| COc1cc(C(=O)NCCN2CCC3(CC2)C(=O)NCN3c2cccc(F)c2)cc(OC)c1OC | 1430 nM |
| C[C@@H](CN1CCC2(CC1)C(=O)NCN2c1cccc(F)c1)NC(=O)c1cccc([N+](=O)[O-])c1 | 430 nM |
| C[C@@H](CN1CCC2(CC1)C(=O)NCN2c1cccc(F)c1)NC(=O)c1ccc(F)cc1 | 34 nM |

Source: PubChem BioAssay AID624004 (Vanderbilt Specialized Chemistry Center, 2012)
